Measurements from US20220118117A1, “MODULATORS OF METABOTROPIC GLUTAMATE RECEPTOR 4” (The General Hospital Corporation, priority 2019, published 2022).
“And” between values parts separate entries of the source, which are not always exact repeats. Equal values may be shown once. Read-outs that look alike come from different tables or passages of the source.

Legend:
mGluR4 = mGluR4 (Homo sapiens, UniProt Q14833); test: GloSensor cAMP biosensor assay, mGluR4 PAM and agonist activity; type: cell-based; set-up: expressed in transfected cells
Chain of mGluR4 (Q14833 33-912): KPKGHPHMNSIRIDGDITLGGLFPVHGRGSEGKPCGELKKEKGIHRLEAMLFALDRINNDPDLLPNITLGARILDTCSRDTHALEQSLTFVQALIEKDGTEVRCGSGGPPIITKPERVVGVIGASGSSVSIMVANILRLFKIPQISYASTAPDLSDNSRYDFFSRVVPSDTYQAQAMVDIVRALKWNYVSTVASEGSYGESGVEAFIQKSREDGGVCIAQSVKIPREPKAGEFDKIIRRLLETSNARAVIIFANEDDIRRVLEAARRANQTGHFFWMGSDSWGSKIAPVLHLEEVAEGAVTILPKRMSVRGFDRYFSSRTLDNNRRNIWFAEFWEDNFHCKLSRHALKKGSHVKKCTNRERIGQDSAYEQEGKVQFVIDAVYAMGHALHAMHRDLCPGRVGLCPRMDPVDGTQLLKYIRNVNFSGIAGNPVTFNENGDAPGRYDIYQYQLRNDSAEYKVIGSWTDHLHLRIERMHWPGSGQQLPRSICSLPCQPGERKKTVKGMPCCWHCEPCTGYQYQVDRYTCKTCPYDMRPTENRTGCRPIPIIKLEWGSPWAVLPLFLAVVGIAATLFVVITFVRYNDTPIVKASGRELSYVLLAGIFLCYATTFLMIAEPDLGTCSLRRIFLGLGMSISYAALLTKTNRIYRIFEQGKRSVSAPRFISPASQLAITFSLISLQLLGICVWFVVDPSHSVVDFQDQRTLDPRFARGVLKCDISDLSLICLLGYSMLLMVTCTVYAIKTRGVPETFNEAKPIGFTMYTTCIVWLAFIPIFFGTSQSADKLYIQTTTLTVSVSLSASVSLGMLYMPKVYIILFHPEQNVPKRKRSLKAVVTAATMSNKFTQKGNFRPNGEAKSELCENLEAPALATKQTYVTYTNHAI
Protocol: Cell Culture. HEK-293 cells were maintained with complete Dulbecco's modified Eagle's medium (DMEM), which was composed of 10% fetal bovine serum (FBS), 2 mM L-glutamine, 100 units/mL penicillin G, 100 μg/mL streptomycin at 37° C. in the presence of 5% CO2. HEK-293 stable cell lines with tetracycline inducible expression of mGluR1, mGluR2, mGluR4, mGluR6 or mGluR8 were maintained with complete DMEM with Hygromycin B (100 μg/mL), Blasticidin (15 μg/mL) at 37° C. in the presence of 5% CO2.
cAMP assay. The Gi/o coupled receptors (mGluR2, mGluR3, mGluR4, mGluR6 and mGluR8) were tested using cAMP assay. Promega's split luciferase based GloSensor cAMP biosensor technology was used in determining Gi-GPCR mediated cAMP production in live cells. On the cells stably expressing mGluR2, mGluR3, mGluR4, mGluR6 or mGluR8, GloSensor cAMP DNA construct was transfected overnight. Cells were seeded into PLL coated 384-well white clear bottom cell culture plates with complete BME Buffer with Tetracycline (1 μg/mL) at a density of 20,000 cells for another 24 h. The cell medium was removed and then 20 μL of buffer was loaded. […] Luminescence was counted in a Trilux luminescence counter. Data were analyzed with Prizm 5.0 (GraphPad software).
Secondary assays—Dose-response assays. […] For each compound, the results from four replicates were averaged and then either EC50 or IC50 values were calculated by non-linear regression using the 4-parameter logistic equation. […]
In sum, the mGluR4 PAM activity was determined using Promega's split luciferase based GloSensor cAMP biosensor assay (refs. 41-42). mGluR4 is coupling to Gαi protein to inhibit adenylate cyclase, which converts ATP to cAMP, which plays an important role in many signal transduction pathways. […] The mGluR4 PAM activity of 15 was evaluated in presence of EC20 concentration of agonist (1 μM L-SOP) by measuring changes in intracellular cAMP concentration.

solution stability = type: physicochemical
Protocol: Three pH values, 5, 7.4 and 9.4 were selected to check the solution stability. Aqueous solutions with different pH values were established using the following buffers: sodium acetate-KCl—HCl buffer (20 mM, pH 5.0), phosphate buffer (20 mM, pH 7.4), and boric acid-KCl—NaOH buffer (20 mM, pH 9.4). 891 μL of each pH buffer was placed in different tubes. 9 μL (1 mM) of the sample stock (4, 13, 15 and Diltiazem) was transferred to a particular buffer tube and mixed just before the time 0 min. The mixture was vortexed and incubated at 37° C. After the incubation at the different time points (0, 15, 30, 60, and 120 min), aliquots of 50 μL samples were quenched with 100 μL of ice-cold acetonitrile with 25 μM internal reference, respectively, and analyzed by HPLC. The percentage of the remaining intact compound was calculated by (peak area at the specific time point)/(peak area at 0 min)×100. Every sample was assayed three times.

microsomal stability = type: in vitro ADME, Sprague-Dawley rat; details: rat liver microsomes, NADPH
Protocol: First, Sprague-Dawley rat liver microsomes (0.5 mg/mL, Sigma-Aldrich, No. M9066) was incubated with PBS (50 mM, pH=7.4) in a reaction tube at 37° C. for 3 min. To the reaction tube were added the test compound (2 μM) and then cofactor, NADPH (1 mM), to start the reaction. The mixture was shaken in a water bath at 37° C. At different time points (0, 5, 10, 15, 30 min), aliquots (50 μL) were removed and added to 100 μl of cold acetonitrile with internal standard (25 μM) to quench the reaction. The precipitated material was by centrifugation (10,000×g, 10 min, 4° C.), and the supernatant was analyzed by RP-HPLC (Column: Phenomenex Luna© 5 μm, Cis, 100 Å, 250×4.6 mm). The RP-HPLC was carried out by using a 15-min gradient method: eluent A: 0.1% formic acid/H2O; eluent B: 0.1% formic acid/CH3CN; gradient: […]; 5% B to 95% B from 1 to 9 min, 95% B from 9 to 12 min, 95% to 5% B from 12 to 13 min, 5% B from 13 to 15 min; flow rate at 0.7 mL/min.
The in peak area ratio (test compound peak area at a time point/peak area at 0 min time point) was plotted against time and the gradient of the line was determined. Subsequently, the half-life (t1/2) was calculated as 0.693/k, where the elimination rate constant k equals to −gradient. V (μL/mg) was obtained as a ratio of volume of incubation […]/protein in the incubation (mg). Finally, the intrinsic clearance (CLint) (μL/min/mg protein) was calculated as V*0.693/t1/2.

With [2H]C([2H])(F)Sc1cc(NC(=O)c2ccccn2)ccc1Cl [Compound 15, N-(4-Chloro-3-((fluoromethyl-d2)thio)phenyl)picolinamide] the EC50 (mGluR4; agonist mode, cAMP assay, read-out: EC50, mGluR4 agonist activity) was 2750 nM, the EC50 (mGluR4; in presence of EC20 concentration of agonist (1 μM L-SOP), read-out: EC50, mGluR4 PAM activity) was 324 nM and the “The solution stability, The intact ± SEM at 120 min (%)” value (solution stability; pH = 5.0, 37° C.) was 87.1 ± 0.9%. For the same molecule, the “The solution stability, The intact ± SEM at 120 min (%)” value (solution stability; pH = 7.4, 37° C.) was 88.3 ± 1.9%, the “The solution stability, The intact ± SEM at 120 min (%)” value (solution stability; pH = 9.4, 37° C.) was 84.3 ± 1.8% and the “The microsome stability t1/2” value (microsomal stability) was 57.258 min and 57.3 min.
